# Structures can show the parent of a compound that is named as a salt. Where two headings read alike, the source gives them in different places.
# Assays:
# PI3Kγ = tested on: PI3Kγ; set-up: method as in S-inhibitor catalog; conditions: vendor brief description; ref S-inhibitor catalog; cited from earlier work
# [1] = tested on: Toxoplasma gondii RH-2F tachyzoites; assay: microbe, parasite or virus in culture; conditions: 72 h
# muscarinic receptor = target: muscarinic receptor; set-up: method as in S-inhibitor catalog; conditions: vendor brief description; ref S-inhibitor catalog; read-out: Kb, muscarinic receptor antagonist; cited from earlier work
# human DGAT-1 = tested on: human DGAT-1; set-up: method as in S-inhibitor catalog; conditions: vendor brief description; ref S-inhibitor catalog; cited from earlier work
# mouse DGAT-1 = tested on: mouse DGAT-1; set-up: method as in S-inhibitor catalog; conditions: vendor brief description; ref S-inhibitor catalog; cited from earlier work
# PKA = target: PKA; set-up: method as in S-inhibitor catalog; conditions: vendor brief description; ref S-inhibitor catalog; cited from earlier work
# fatty acid synthesis = tested on: fatty acid synthesis; set-up: method as in S-inhibitor catalog; conditions: vendor brief description; ref S-inhibitor catalog; cited from earlier work
# AMPK = conditions: read-out: EC50, AMPK activation; vendor brief description; ref S-inhibitor catalog; cited from earlier work
# Chk1 = tested on: Chk1; set-up: method as in S-inhibitor catalog; conditions: vendor brief description; ref S-inhibitor catalog; cited from earlier work
# [2] = target: glycogen phosphorylase (GP); set-up: method as in S-inhibitor catalog; conditions: vendor brief description; ref S-inhibitor catalog; cited from earlier work
# [3] = tested on: Pol I-driven transcription of rRNA; set-up: method as in S-inhibitor catalog; conditions: in HCT-116 cells; vendor brief description; ref S-inhibitor catalog; cited from earlier work
# [4] = target: hydroxymethylglutaryl coenzyme A reductase (HMGCR); set-up: method as in S-inhibitor catalog; conditions: vendor brief description; ref S-inhibitor catalog; cited from earlier work
# ErbB1 = tested on: ErbB1; set-up: method as in S-inhibitor catalog; conditions: vendor brief description; ref S-inhibitor catalog; cited from earlier work
# ErbB2 = tested on: ErbB2; set-up: method as in S-inhibitor catalog; conditions: vendor brief description; ref S-inhibitor catalog; cited from earlier work
# ErbB4 = tested on: ErbB4; set-up: method as in S-inhibitor catalog; conditions: vendor brief description; ref S-inhibitor catalog; cited from earlier work
# CDK1 = tested on: CDK1; set-up: method as in S-inhibitor catalog; conditions: vendor brief description; ref S-inhibitor catalog; cited from earlier work
# CDK4 = tested on: CDK4; set-up: method as in S-inhibitor catalog; conditions: vendor brief description; ref S-inhibitor catalog; cited from earlier work
# CDK6 = tested on: CDK6; set-up: method as in S-inhibitor catalog; conditions: vendor brief description; ref S-inhibitor catalog; cited from earlier work
# CDK7 = tested on: CDK7; set-up: method as in S-inhibitor catalog; conditions: vendor brief description; ref S-inhibitor catalog; cited from earlier work
# MEK2 = tested on: MEK2; set-up: method as in S-inhibitor catalog; conditions: vendor brief description; ref S-inhibitor catalog; cited from earlier work
# in vitro = conditions: human, Host viability (%) mean
# IGF-1R = tested on: IGF-1R; set-up: method as in S-inhibitor catalog; conditions: vendor brief description; ref S-inhibitor catalog; cited from earlier work
# ALK = conditions: read-out: IC50, ALK; vendor brief description; ref S-inhibitor catalog; cited from earlier work
# p110β = target: p110β; set-up: method as in S-inhibitor catalog; conditions: vendor brief description; ref S-inhibitor catalog; cited from earlier work
# [5] = target: opioid receptor-like1 (ORL1) receptor; set-up: method as in S-inhibitor catalog; conditions: vendor brief description; ref S-inhibitor catalog; cited from earlier work
# cancer cell lines = tested on: cancer cell lines; set-up: method as in S-inhibitor catalog; conditions: vendor brief description; ref S-inhibitor catalog; cited from earlier work
# 5-HT1D = target: 5-HT1D; set-up: method as in S-inhibitor catalog; conditions: vendor brief description; ref S-inhibitor catalog; cited from earlier work
# γ-secretase [6] = target: γ-secretase; set-up: method as in S-inhibitor catalog; conditions: vendor brief description; ref S-inhibitor catalog; read-out: IC50, membrane-based γ-secretase; cited from earlier work
# γ-secretase [7] = target: γ-secretase; set-up: method as in S-inhibitor catalog; conditions: vendor brief description; ref S-inhibitor catalog; read-out: IC50, cell-based γ-secretase; cited from earlier work
# [8] = target: TGF-β receptor type II (TβRII); set-up: method as in S-inhibitor catalog; conditions: vendor brief description; ref S-inhibitor catalog; cited from earlier work
# [9] = target: Aβ40 production (γ-secretase); set-up: method as in S-inhibitor catalog; conditions: in human SH-SY5Y cells; vendor brief description; ref S-inhibitor catalog; read-out: IC50, reduction of Aβ40 production; cited from earlier work
# MDMX = tested on: MDMX; set-up: method as in S-inhibitor catalog; conditions: vendor brief description; ref S-inhibitor catalog; read-out: IC50, MDMX suppression; cited from earlier work
# DNA-PK = tested on: DNA-PK; set-up: method as in S-inhibitor catalog; conditions: vendor brief description; ref S-inhibitor catalog; cited from earlier work
# PI3K = tested on: PI3K; set-up: method as in S-inhibitor catalog; conditions: vendor brief description; ref S-inhibitor catalog; cited from earlier work
# Aurora A = tested on: Aurora A; set-up: method as in S-inhibitor catalog; conditions: vendor brief description; ref S-inhibitor catalog; cited from earlier work
# Aurora B = tested on: Aurora B; set-up: method as in S-inhibitor catalog; conditions: vendor brief description; ref S-inhibitor catalog; cited from earlier work
# HSP90 = target: HSP90; set-up: method as in S-inhibitor catalog; conditions: vendor brief description; ref S-inhibitor catalog; cited from earlier work
# Her-2 degradation = tested on: Her-2 degradation; set-up: method as in S-inhibitor catalog; conditions: vendor brief description; ref S-inhibitor catalog; cited from earlier work
# p38α = conditions: read-out: IC50, p38α; vendor brief description; ref S-inhibitor catalog; cited from earlier work
# GPR40 = tested on: GPR40; set-up: method as in S-inhibitor catalog; conditions: vendor brief description; ref S-inhibitor catalog; read-out: EC50, GPR40 agonist; cited from earlier work
# JAK2 = tested on: JAK2; set-up: method as in S-inhibitor catalog; conditions: vendor brief description; ref S-inhibitor catalog; cited from earlier work
# Flt3 = tested on: Flt3; set-up: method as in S-inhibitor catalog; conditions: vendor brief description; ref S-inhibitor catalog; cited from earlier work
# Ret = tested on: Ret; set-up: method as in S-inhibitor catalog; conditions: vendor brief description; ref S-inhibitor catalog; cited from earlier work
# 5-HT Receptor = target: 5-HT Receptor; set-up: method as in S-inhibitor catalog; conditions: vendor brief description; ref S-inhibitor catalog; cited from earlier work
# [10] = target: farnesoid X receptor (FXR); set-up: method as in S-inhibitor catalog; conditions: vendor brief description; ref S-inhibitor catalog; read-out: EC50, FXR agonist; cited from earlier work
# APPL (γ-secretase) = target: APPL (γ-secretase); set-up: method as in S-inhibitor catalog; conditions: vendor brief description; ref S-inhibitor catalog; cited from earlier work
# Notch (γ-secretase) = target: Notch (γ-secretase); set-up: method as in S-inhibitor catalog; conditions: vendor brief description; ref S-inhibitor catalog; cited from earlier work
# [11] = read-out: Parasite inhibition (%) mean, preliminary screen of compound library, mean
compound,measurement,setting,value
O=C1NC(=O)C(=Cc2ccc(-c3ccc(F)cc3)o2)S1 (stereo in doubt) [CAY10505],IC50,PI3Kγ,30 nM
same,inhibition of growth at 5 µM,[1]; [11],-7.4%
CC(C)N(CC[C@H](c1ccccc1)c1cc(CO)ccc1O)C(C)C [5-hydroxymethyl tolterodine (PNU 200577)],Kb,muscarinic receptor,0.84 nM
same,inhibition of growth at 5 µM,[1]; [11],-18.8%
O=C(Nc1ccccc1)Nc1ccc(-c2ccc(C(=O)[C@@H]3CCC[C@@H]3C(=O)O)cc2)cc1 [A 922500],IC50,human DGAT-1,7 nM
same,IC50,mouse DGAT-1,24 nM
same,inhibition of growth at 5 µM,[1]; [11],2%
Cc1n[nH]c2ccc(-c3cncc(OC[C@@H](N)Cc4ccccc4)c3)cc12 [A-674563],Ki,PKA,16 nM
same,inhibition of growth at 5 µM,[1]; [11],67.7%
N#Cc1c(O)c2c(-c3ccc(-c4ccccc4O)cc3)csc2[nH]c1=O [A-769662],IC50,fatty acid synthesis,3200 nM
same,inhibition of growth at 5 µM,[1]; [11],-13.9%
O=c1[nH]c2ccc(Cl)cc2c(N[C@@H]2CN3CCC2CC3)c1-c1nc2ccccc2[nH]1 [CHIR-124],IC50,Chk1,0.3 nM
same,inhibition of growth at 5 µM,[1]; [11],0%
CN(C)C(=O)[C@H](O)[C@H](Cc1ccccc1)NC(=O)c1cc2cc(Cl)ccc2[nH]1 [CP-91149],IC50,[2],130 nM
same,inhibition of growth at 5 µM,[1]; [11],28.6%
Cc1cnc(CNC(=O)c2c(=O)c3ccc(N4CCCN(C)CC4)nc3n3c2sc2ccccc23)cn1 [CX-5461],IC50,[3],142 nM
same,inhibition of growth at 5 µM,[1]; [11],2.5%
CCC(C)(Oc1ccc(C2(c3ccc(OC(C)(CC)C(=O)O)cc3)CCCCC2)cc1)C(=O)O (stereo not drawn) [Clinofibrate],IC50,[4],470000 nM
same,inhibition of growth at 5 µM,[1]; [11],0.1%
"COc1cc2ncnc(Nc3ccc(F)c(Cl)c3)c2cc1NC(=O)/C=C/CN1CCCCC1 [Dacomitinib (PF299804,PF-00299804)]",IC50,ErbB1,[…]
same,inhibition of growth at 5 µM,[1]; [11],0.4%
CN1CC[C@H](c2c(O)cc(O)c3c(=O)cc(-c4ccccc4Cl)oc23)[C@H](O)C1 [Flavopiridol (Alvocidib) HCl],IC50,CDK1,[…]
same,IC50,CDK7,300 nM
same,inhibition of growth at 5 µM,[1]; [11],6.4%
CC(=O)Nc1cccc(-n2c(=O)n(C3CC3)c(=O)c3c(Nc4ccc(I)cc4F)n(C)c(=O)c(C)c32)c1 [GSK1120212 (Trametinib)],IC50,MEK2,[…]
same,inhibition of growth at 5 µM,[1]; [11],-8.7%
CNC(=O)c1c(F)cccc1Nc1nc(Nc2cc3c(cc2OC)CCN3C(=O)CN(C)C)nc2[nH]ccc12 [GSK1838705A],viability at 72 h,in vitro,72.8%
same,IC50,IGF-1R,2 nM
same,IC50,ALK,0.5 nM
same,inhibition of growth at 5 µM,[1]; [11],70.9%
COc1ncc(-c2ccc3nccc(-c4ccnnc4)c3c2)cc1NS(=O)(=O)c1ccc(F)cc1F [GSK2126458],Ki,p110β,[…]
same,inhibition of growth at 5 µM,[1]; [11],21.3%
CCc1ccc(OCc2ccccc2C(=O)Nc2ccc3nc(C)cc(N)c3c2)cc1 [JTC-801],viability at 72 h,in vitro,16.4%
same,IC50,[5],94 nM
same,inhibition of growth at 5 µM,[1]; [11],98.8%
O=C(Cc1ccc(-c2ccc(OCCN3CCOCC3)cc2)cn1)NCc1ccccc1 [KX2-391],GI50,cancer cell lines,9 to 60 nM
same,inhibition of growth at 5 µM,[1]; [11],7.6%
CC1(C)C(=O)N(CCN2CCC(C(=O)c3ccc(F)cc3)CC2)c2ccccc21 [LY310762],Ki,5-HT1D,~200 nM
same,inhibition of growth at 5 µM,[1]; [11],1.5%
C[C@H](NC(=O)[C@@H](O)c1cc(F)cc(F)c1)C(=O)N[C@@H]1C(=O)N(C)c2ccccc2-c2ccccc21 [LY411575],IC50,γ-secretase [6],0.078 nM
same,IC50,γ-secretase [7],0.082 nM
same,inhibition of growth at 5 µM,[1]; [11],0.9%
c1ccc(-c2nn3c(c2-c2ccnc4cc(OCCN5CCOCC5)ccc24)CCC3)nc1 [LY2109761],Ki,[8],300 nM
same,inhibition of growth at 5 µM,[1]; read-out: Parasite inhibition (%) mean,46.7%
O=C(O)CC[C@H]1CC[C@@](c2cc(F)ccc2F)(S(=O)(=O)c2ccc(Cl)cc2)CC1 [MK-0752],IC50,[9],5 nM
same,inhibition of growth at 5 µM,[1]; [11],7.5%
CN1CCN(c2ccc([N+](=O)[O-])c3no[n+]([O-])c23)CC1 [NSC-207895 (XI-006)],IC50,MDMX,2500 nM
same,inhibition of growth at 5 µM,[1]; [11],0.2%
O=c1cc(N2CCOCC2)oc2c(-c3cccc4c3sc3ccccc34)cccc12 [NU7441 (KU-57788)],IC50,DNA-PK,14 nM
same,IC50,PI3K,5000 nM
same,inhibition of growth at 5 µM,[1]; [11],21.5%
CC(=O)NCC(=O)N1[C@H]2CC[C@H]1c1cc(Nc3ncc(C(F)(F)F)c(NC4CCC4)n3)ccc12 [PF-03814735],viability at 72 h,in vitro,60.3%
same,IC50,Aurora A,0.8 nM
same,IC50,Aurora B,5 nM
same,inhibition of growth at 5 µM,[1]; [11],80.4%
CC1(C)CC(=O)c2c(C(F)(F)F)nn(-c3ccc(C(N)=O)c(N[C@H]4CC[C@H](OC(=O)CN)CC4)c3)c2C1 [PF-04929113 (SNX-5422)],Kd,HSP90,41 nM
same,IC50,Her-2 degradation,37 nM
same,inhibition of growth at 5 µM,[1]; [11],4.6%
CNC(=O)c1ccc(C)c(-n2c(C)cc(OCc3ccc(F)cc3F)c(Br)c2=O)c1 [PH-797804],IC50,p38α,26 nM
same,inhibition of growth at 5 µM,[1]; [11],1.5%
Cc1cc(OCCCS(C)(=O)=O)cc(C)c1-c1cccc(COc2ccc3c(c2)OC[C@H]3CC(=O)O)c1 [TAK-875],EC50,GPR40,[…]
same,inhibition of growth at 5 µM,[1]; [11],-10.4%
Cc1cnc(Nc2ccc(N3CCN(C)CC3)cc2)nc1Nc1cccc(S(=O)(=O)NC(C)(C)C)c1 [TG101209],IC50,JAK2,6 nM
same,IC50,Flt3,25 nM
same,IC50,Ret,17 nM
same,inhibition of growth at 5 µM,[1]; [11],-21.3%
COc1ccccc1N1CCN(CCN(C(=O)C2CCCCC2)c2ccccn2)CC1 [WAY-100635 HCl],IC50,5-HT Receptor,0.95 nM
same,inhibition of growth at 5 µM,[1]; [11],-0.7%
CC(C)OC(=O)C1=CN(C(=O)c2ccc(F)c(F)c2)CC(C)(C)c2c1[nH]c1ccccc21 [WAY-362450],EC50,[10],4 nM
same,inhibition of growth at 5 µM,[1]; [11],-2.1%
C[C@H](NC(=O)Cc1cc(F)cc(F)c1)C(=O)N[C@@H]1C(=O)N(C)c2ccccc2-c2ccccc21 [YO-01027],IC50,APPL (γ-secretase),2.6 nM
same,IC50,Notch (γ-secretase),2.9 nM
same,inhibition of growth at 5 µM,[1]; [11],1.4%

# From publication PMC7216583 (Parasites & Vectors, 2020)
